Tests used:
Format in all cases: biochemical
K-Ras G12D = target: T1, K-Ras G12D (Homo sapiens, UniProt P01116, G12D); assay: HTRF resonance energy transfer assay, K-Ras G12D / SOS1 interaction; details: HTRF assay of Example 5; read-out: IC50 against K-Ras G12D
T1 construct: made in house; host or cells: E. coli BL21 (DE3)
From the text: (§1) This assay can be also used to assess a selective inhibition or reduction of signaling output of a mutant Ras protein relative to a wildtype, or relative to a different mutant Ras protein. For example, the equilibrium interaction of wildtype Kras or K-Ras mutant (e.g., wildtype or a mutant thereof) with SOS1 (e.g., hSOS1) can be assessed as a proxy or an indication for a subject compound's ability to bind and inhibit Ras protein. HTRF assay detects from (i) a fluorescence resonance energy transfer (FRET) donor (e.g., antiGST-Europium) that is bound to GST-tagged K-Ras mutant to (ii) a FRET acceptor (e.g., anti-6His-XL665) bound to a His-tagged hSOS1.
(§2) The assay buffer can contain˜5 mM HEPES pH 7.4, ˜150 mM NaCl, ˜ 1 mM DTT, 0.05% BSA and 0.0025%(v/v) Igepal. A Ras working solution is prepared in an assay buffer containing typically a suitable amount of the protein construct (e.g., GST-tagged K-Ras mutant) and the FRET donor (e.g., antiGST-Eu(K) from Cisbio, France). A SOS1 working solution is prepared in an assay buffer containing suitable amount of the protein construct (e.g., His-hSOS1) and the FRET acceptor (e.g., anti-6His-XL665 from Cisbio, France). A suitable amount of the protein construct will depend on the range of activity or range of IC50 values being detected or under investigation. For detecting IC50 within a range of 500 nM, the protein constructs of the same range of molarity can be utilized.
(§3) A fixed volume of DMSO with or without test compound is transferred into a 384-well plate. Ras working solution is added to all wells of the test plate. SOS1 working solution is added to all wells except for those that are subsequently filled the inhibitor control solution. Upon incubation for about 10 minutes or longer, the fluorescence is measured with a M1000Pro plate reader (Tecan) using HTRF detection (excitation 337 nm, emission 1: 620 nm, emission 2: 665 nm). Compounds are tested in duplicates at different concentrations (for example, 10 μM, 2.5 μM, 0.63 μM, 0.16 μM, 0.04 μM, 0.01 μM test compound). The ratiometric data (i.e., emission 2 divided by emission 1) is used to calculate IC50 values against Ras using GraphPad Prism (GraphPad software). Following this general procedure, samples were tested with or without a subject compound disclosed herein including compounds exemplified in Table 1 to assess their abilities to inhibit a K-Ras mutant relative to another mutant or WT. Signaling output measured in terms of IC50 values can be obtained, a ratio of IC50 against one mutant relative to another mutant can be calculated. For instance, a selective reduction of K-Ras G12D signaling output can be evidenced by a ratio greater than one. In particular, a selective reduction of K-Ras G12D signaling relative to K-Ras WT signaling is evidenced as the ratio of IC50 (against K-Ras WT) to IC50 (against K-Ras G12D) is greater than 1.

K-Ras G12S = target: T2, K-Ras G12S (Homo sapiens, UniProt P01116, G12S); assay: HTRF resonance energy transfer assay, K-Ras G12S / SOS1 interaction; details: HTRF assay of Example 5; read-out: IC50 against K-Ras G12S
T2 construct: made in house; host or cells: E. coli BL21 (DE3)
From the text: as §1, §2, §3

K-Ras G12V = target: T3, K-Ras G12V (Homo sapiens, UniProt P01116, G12V); assay: HTRF resonance energy transfer assay, K-Ras G12V / SOS1 interaction; details: HTRF assay of Example 5; read-out: IC50 against K-Ras G12V
T3 construct: made in house; host or cells: E. coli BL21 (DE3)
From the text: as §1, §2, §3

K-Ras WT = target: T4, K-Ras WT (Homo sapiens, UniProt P01116); assay: HTRF resonance energy transfer assay, K-Ras WT / SOS1 interaction; details: HTRF assay of Example 5; read-out: IC50 against K-Ras WT
T4 construct: made in house; host or cells: E. coli BL21 (DE3)
From the text: as §1, §2, §3

Measured: IC50

T2 sequence (P01116 1-188 isoform P01116-2 G12S): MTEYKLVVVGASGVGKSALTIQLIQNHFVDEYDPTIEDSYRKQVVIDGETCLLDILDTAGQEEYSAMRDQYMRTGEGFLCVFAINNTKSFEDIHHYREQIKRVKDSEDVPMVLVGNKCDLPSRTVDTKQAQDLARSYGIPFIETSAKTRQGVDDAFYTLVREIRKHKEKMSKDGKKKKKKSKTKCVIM
T1 sequence (P01116 1-188 isoform P01116-2 G12D): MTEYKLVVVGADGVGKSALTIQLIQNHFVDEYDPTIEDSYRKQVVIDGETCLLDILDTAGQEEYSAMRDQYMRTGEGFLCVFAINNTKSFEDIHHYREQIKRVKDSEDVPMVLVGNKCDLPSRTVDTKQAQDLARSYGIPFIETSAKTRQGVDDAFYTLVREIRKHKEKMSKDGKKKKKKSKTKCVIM
T4 sequence (P01116 1-188 isoform P01116-2): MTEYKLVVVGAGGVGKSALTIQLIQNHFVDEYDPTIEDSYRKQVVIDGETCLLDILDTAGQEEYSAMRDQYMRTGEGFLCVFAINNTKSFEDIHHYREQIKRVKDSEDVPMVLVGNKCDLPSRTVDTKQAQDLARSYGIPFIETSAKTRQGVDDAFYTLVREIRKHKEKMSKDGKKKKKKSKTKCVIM
T3 sequence (P01116 1-188 isoform P01116-2 G12V): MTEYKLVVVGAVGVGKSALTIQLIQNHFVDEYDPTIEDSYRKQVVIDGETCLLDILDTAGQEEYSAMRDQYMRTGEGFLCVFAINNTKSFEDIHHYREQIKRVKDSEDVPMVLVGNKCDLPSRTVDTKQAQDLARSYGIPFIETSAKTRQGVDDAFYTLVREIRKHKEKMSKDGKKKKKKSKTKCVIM

C=C[C@H]1COc2c(Cl)c(-c3ccc(F)c4sc(N)c(C#N)c34)c(F)c3nc(OC[C@@]45CCCN4C[C@H](F)C5)nc(c23)N1CCC(F)F (single isomer, unassigned) [Compound 906]
< 100 nM: all assays above

C=C[C@H]1COc2c(Cl)c(-c3ccc(F)c4sc(N)c(C#N)c34)c(F)c3nc(OC[C@@]45CCCN4C[C@H](F)C5)nc(c23)N1CCOC (single isomer, unassigned) [Compound 917]
< 100 nM: all assays above

N#Cc1c(N)sc2c(F)ccc(-c3c(Cl)c4c5c(nc(OC[C@@]67CCCN6C[C@H](F)C7)nc5c3F)N(C3CCN(C5CC5)C3)CCO4)c12 (stereo partly drawn) [Compound 631, 2-amino-4-(8-chloro-4-(1-cyclopropylpyrrolidin-3-yl)-10-fluoro-2-(((2R,7aS)-2-fluorotetrahydro-1H-pyrrolizin-7a(5H)-yl)methoxy)-5,6-dihydro-4H-[1,4]oxazepino[5,6,7-de]quinazolin-9-yl)-7-fluorobenzo[b]thiophene-3-carbonitrile]
< 100 nM: all assays above

N#Cc1c(N)sc2c(F)ccc(-c3c(Cl)c4c5c(nc(OC[C@@]67CCCN6C[C@H](F)C7)nc5c3F)N(C3CC35CCNC5)CCO4)c12 (stereo partly drawn) [Compound 735, 2-amino-4-(8-chloro-10-fluoro-2-(((2R,7aS)-2-fluorotetrahydro-1H-pyrrolizin-7a(5H)-yl)methoxy)-4-(5-azaspiro[2.4]heptan-1-yl)-5,6-dihydro-4H-[1,4]oxazepino[5,6,7-de]quinazolin-9-yl)-7-fluorobenzo[b]thiophene-3-carbonitrile]
< 100 nM: all assays above

N#Cc1c(N)sc2c(F)ccc(-c3c(Cl)c4c5c(nc(OC[C@@]67CCCN6C[C@H](F)C7)nc5c3F)N(CC3CC3C#N)CCO4)c12 (stereo partly drawn) [Compound 738, 2-amino-4-(8-chloro-4-((2-cyanocyclopropyl)methyl)-10-fluoro-2-(((2R,7aS)-2-fluorotetrahydro-1H-pyrrolizin-7a(5H)-yl)methoxy)-5,6-dihydro-4H-[1,4]oxazepino[5,6,7-de]quinazolin-9-yl)-7-fluorobenzo[b]thiophene-3-carbonitrile]
< 100 nM: all assays above

N#Cc1c(N)sc2c(F)ccc(-c3c(Cl)c4c5c(nc(OC[C@@]67CCCN6C[C@H](F)C7)nc5c3F)N(CC(F)F)[C@@H](C3CC(C#N)C3)CO4)c12 (stereo partly drawn) [Compound 753, 2-amino-4-((S)-8-chloro-5-(3-cyanocyclobutyl)-4-(2,2-difluoroethyl)-10-fluoro-2-(((2R,7aS)-2-fluorotetrahydro-1H-pyrrolizin-7a(5H)-yl)methoxy)-5,6-dihydro-4H-[1,4]oxazepino[5,6,7-de]quinazolin-9-yl)-7-fluorobenzo[b]thiophene-3-carbonitrile]
< 100 nM: all assays above

N#Cc1c(N)sc2c(F)ccc(-c3c(Cl)c4c5c(nc(OC[C@@]67CCCN6C[C@H](F)C7)nc5c3F)N(C3CCNCC3)CCO4)c12 [Compound 760, 2-amino-4-(8-chloro-10-fluoro-2-(((2R,7aS)-2-fluorotetrahydro-1H-pyrrolizin-7a(5H)-yl)methoxy)-4-(piperidin-4-yl)-5,6-dihydro-4H-[1,4]oxazepino[5,6,7-de]quinazolin-9-yl)-7-fluorobenzo[b]thiophene-3-carbonitrile]
< 100 nM: all assays above

CC(O)C1COc2c(Cl)c(-c3ccc(F)c4sc(N)c(C#N)c34)c(F)c3nc(OC[C@@]45CCCN4C[C@H](F)C5)nc(c23)N1CC1(N(C)C)CCC1 (stereo partly drawn) [Compound 773, 2-amino-4-(8-chloro-4-((1-(dimethylamino)cyclobutyl)methyl)-10-fluoro-2-(((2R,7aS)-2-fluorotetrahydro-1H-pyrrolizin-7a(5H)-yl)methoxy)-5-(1-hydroxyethyl)-5,6-dihydro-4H-[1,4]oxazepino[5,6,7-de]quinazolin-9-yl)-7-fluorobenzo[b]thiophene-3-carbonitrile]
< 100 nM: all assays above

CNCCCN1CCOc2c(Cl)c(-c3ccc(F)c4sc(N)c(C#N)c34)c(F)c3nc(OC[C@@]45CCCN4C[C@H](F)C5)nc1c23 [Compound 778, 2-amino-4-(8-chloro-10-fluoro-2-(((2R,7aS)-2-fluorotetrahydro-1H-pyrrolizin-7a(5H)-yl)methoxy)-4-(3-(methylamino)propyl)-5,6-dihydro-4H-[1,4]oxazepino[5,6,7-de]quinazolin-9-yl)-7-fluorobenzo[b]thiophene-3-carbonitrile]
< 100 nM: all assays above

N#Cc1c(N)sc2c(F)ccc(-c3c(Cl)c4c5c(nc(OC[C@@]67CCCN6C[C@H](F)C7)nc5c3F)N(C3CCCNC3)CCO4)c12 (stereo partly drawn) [Compound 787, 2-amino-4-(8-chloro-10-fluoro-2-(((2R,7aS)-2-fluorotetrahydro-1H-pyrrolizin-7a(5H)-yl)methoxy)-4-(piperidin-3-yl)-5,6-dihydro-4H-[1,4]oxazepino[5,6,7-de]quinazolin-9-yl)-7-fluorobenzo[b]thiophene-3-carbonitrile]
< 100 nM: all assays above

C#C[C@H]1COc2c(Cl)c(-c3ccc(F)c4sc(N)c(C#N)c34)c(F)c3nc(OC[C@@]45CCCN4C[C@H](F)C5)nc(c23)N1CCC(F)F [Compound 788, 2-amino-4-((5S)-8-chloro-4-(3,3-difluoropropyl)-5-ethynyl-10-fluoro-2-(((2R,7aS)-2-fluorotetrahydro-1H-pyrrolizin-7a(5H)-yl)methoxy)-5,6-dihydro-4H-[1,4]oxazepino[5,6,7-de]quinazolin-9-yl)-7-fluorobenzo[b]thiophene-3-carbonitrile]
< 100 nM: all assays above

N#Cc1c(N)sc2c(F)ccc(-c3c(Cl)c4c5c(nc(OC[C@@]67CCCN6C[C@H](F)C7)nc5c3F)N(CC(F)F)C(C3CCN3)CO4)c12 (stereo partly drawn) [Compound 816, 2-amino-4-(5-(azetidin-2-yl)-8-chloro-4-(2,2-difluoroethyl)-10-fluoro-2-(((2R,7aS)-2-fluorotetrahydro-1H-pyrrolizin-7a(5H)-yl)methoxy)-5,6-dihydro-4H-[1,4]oxazepino[5,6,7-de]quinazolin-9-yl)-7-fluorobenzo[b]thiophene-3-carbonitrile]
< 100 nM: all assays above
